This note sets out measurements from ChEMBL document CHEMBL1201862, “PubChem BioAssay data set” (2004).

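Step 1: Grow cells in 96-well plates. Step 2: Expose to compound for 48 hours at 5 concentrations. Step 3: Interpolate endpoints linearly; if unreached, use highest concentration. Here, GI50 denotes the concentration required for 50% inhibition of growth.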 Calls of active or inactive are those of the source. No stated cut-off is given here; in the data, active = GI50 up to about 1.1 µM and inactive = higher.

Holding throughout (experiment): NCI anticancer screen, dose series, 48 h
Assay [1] deals with U-251.
In assay [2] the test system is NCI-H23.
The subject of assay [3] is T47D.
Assay [4] relates to UACC-62.
Assay [5] concerns BT-549.
In assay [6] the test system is SW-620.
Assay [7] relates to RXF 393.
For assay [8], the system named is SK-MEL-2.
Assay [9] deals with CCRF-CEM.
The subject of assay [10] is Malme-3M.
Assay [11] has as its system NCI-H226.
Assay [12] relates to UACC-257.
Assay [13] concerns SK-MEL-5.
Assay [14] deals with TK-10.
Assay [15] deals with MDA-N.
Assay [16] relates to SNB-19.
In assay [17] the test system is COLO 205.
The subject of assay [18] is 786-0.
Assay [19] relates to KM-20L2.

As to `Cc1ccccc1/N=N/c1c(O)ccc2ccccc12`, the GI50 in [1] is 70.1 µM (inactive); in assay [2], > 100 µM (inactive); in assay [3], 59.3 µM (inactive); in [4], > 100 µM (inactive); in [5], > 100 µM (inactive); in assay [6], > 100 µM (inactive). Moreover, the GI50 in [7], in assay [8], in assay [9], in assay [10], in assay [11] and in [12] was > 100 µM (inactive) throughout. For the same compound, the GI50 in [13] was > 100 µM (inactive); in assay [14], > 100 µM (inactive); in [15], > 100 µM (inactive); in assay [16], > 100 µM (inactive); in assay [17], > 100 µM (inactive); in assay [18], 48.9 µM (inactive).
For the compound `CCN(CC)Cc1cc(/N=N\c2c(O)ccc3c(/N=N\c4ccc(O)c(CN(CC)CC)c4)c(O)ccc23)ccc1O`, the GI50 in [1] is 3.48 µM (inactive); in [2], 3.56 µM (inactive); in [3] it was 10.3 µM (inactive); in [4], 4.41 µM (inactive); in assay [5] it was 4.92 µM (inactive); in assay [6] it was 3.29 µM (inactive). For the same compound, the GI50 in assay [7] is 2.94 µM (inactive); in [8] it was 12.6 µM (inactive); in [9] it was 2.44 µM (inactive); in assay [10], 4.5 µM (inactive); in [11], 4.54 µM (inactive); in assay [12], 5.75 µM (inactive). The GI50 is 2.47 µM (inactive) in [13]; 6.89 µM (inactive) in assay [14]; 4.8 µM (inactive) in [15]; 3.86 µM (inactive) in assay [16]; 1.61 µM (inactive) in assay [17]; 1.87 µM (inactive) in assay [18].
In the case of `Cn1cnc(C(N)=[Se])c1N`, the GI50 was 1.35 µM (inactive) in assay [1]; 3 µM (inactive) in [2]; 3.65 µM (inactive) in assay [3]; 2 µM (inactive) in assay [4]; 1.13 µM (inactive) in assay [5]; 4.19 µM (inactive) in [6]. Moreover, the GI50 in assay [7] was 1.6 µM (inactive); in assay [8], 2.27 µM (inactive); in [9], 2.24 µM (inactive); in [10] it was 2.69 µM (inactive); in assay [11], 3.11 µM (inactive); in assay [12], 7.24 µM (inactive). Moreover, the GI50 in [13] is 3.21 µM (inactive); in assay [14], 2.64 µM (inactive); in assay [15], 4.98 µM (inactive); in assay [16], 1.29 µM (inactive); in assay [17] it was 2.09 µM (inactive); in assay [18], 2.13 µM (inactive).
As for `O=C(CN1CCN(C(=O)OCc2ccccc2)CCN(CC(=O)N2CCCCC2)CCN(C(=O)OCc2ccccc2)CC1)N1CCCCC1`, the GI50 in assay [1] was 16.5 µM (inactive); in assay [2] it was 20.7 µM (inactive); in assay [3], 17 µM (inactive); in [4] it was 18.1 µM (inactive); in assay [5], 23.1 µM (inactive); in assay [6], 19.6 µM (inactive). The GI50 in assay [7] is 11.9 µM (inactive); in assay [8] it was 19.5 µM (inactive); in assay [9] it was 6.44 µM (inactive); in [10], 8.38 µM (inactive); in assay [11], 5.82 µM (inactive); in assay [12] it was 3.49 µM (inactive). In addition, the GI50 in assay [13] was 6.87 µM (inactive); in assay [14], 11.5 µM (inactive); in assay [15] it was 14.8 µM (inactive); in assay [16] it was 19.7 µM (inactive); in [17] it was 11.9 µM (inactive); in assay [18], 13.8 µM (inactive).
Consider `COC(=O)C1=C(C(=O)OC)SC(=C2SC3=C(SC(=C4SCCS4)S3)S2)S1`, for which the GI50 in assay [1] was 93.1 µM (inactive); in assay [2], > 100 µM (inactive); in [3] it was > 100 µM (inactive); in assay [4] it was > 100 µM (inactive); in assay [5], > 100 µM (inactive); in [6] it was > 100 µM (inactive). For the same compound, the GI50 in assay [7], in assay [8], in assay [9], in assay [10], in assay [11] and in assay [12] was > 100 µM (inactive) each time. The GI50 in assay [13], in assay [14], in assay [15], in assay [16], in [17] and in assay [18] was > 100 µM (inactive) each time.
Regarding `Cc1ccc(NC(=O)c2cccc(OP(=O)(O)Nc3ccc(C)cc3)c2)cc1`, the GI50 in [1] was > 100 µM (inactive); in assay [2], > 100 µM (inactive); in [3], 79.3 µM (inactive); in assay [4], > 100 µM (inactive); in assay [5], > 100 µM (inactive); in [6] it was > 100 µM (inactive). The GI50 in assay [7], in assay [8], in [9], in assay [10], in [11] and in assay [12] was > 100 µM (inactive) in each case. Besides, the GI50 is > 100 µM (inactive) in assay [13]; > 100 µM (inactive) in assay [14]; 63.5 µM (inactive) in assay [15]; > 100 µM (inactive) in [16]; > 100 µM (inactive) in [17]; > 100 µM (inactive) in [18].
As to `O=c1cc(-c2ccc(O)cc2)oc2cc(O)cc(O)c12` [APIGENIN], the GI50 in [1] is 22.6 µM (inactive); in [2], 17.8 µM (inactive); in [4] it was 24.8 µM (inactive); in assay [19], 28.8 µM (inactive); in assay [8], 29.9 µM (inactive); in assay [9], 20.4 µM (inactive). In addition, the GI50 was 33.9 µM (inactive) in assay [10]; 24.7 µM (inactive) in [11]; 30.8 µM (inactive) in [12]; 25.4 µM (inactive) in assay [13]; 41.2 µM (inactive) in assay [14]; 29.7 µM (inactive) in assay [16]. The GI50 in assay [17] was 38.9 µM (inactive); in assay [18], 34.3 µM (inactive).
Regarding `C=C1C(=O)O[C@@H]2C(=O)[C@@H](C)[C@@H]3C=CC(=O)[C@@]3(C)[C@@H](OC(=O)/C(C)=C\C)[C@H]12` [MULTISTATIN], the GI50 in [1] is 2.43 µM (inactive); in assay [2], 2.88 µM (inactive); in [3] it was 0.483 µM (active); in [4] it was 1.25 µM (inactive); in assay [5], 0.689 µM (active); in assay [6] it was 0.361 µM (active). The GI50 is 0.378 µM (active) in assay [7]; 2.86 µM (inactive) in assay [8]; 0.168 µM (active) in assay [9]; 0.298 µM (active) in assay [10]; 2.38 µM (inactive) in assay [11]; 1.47 µM (inactive) in assay [12]. The GI50 in [13] was 1.68 µM (inactive); in assay [14], 0.538 µM (active); in assay [15] it was 0.675 µM (active); in [16], 12.9 µM (inactive); in assay [17] it was 0.237 µM (active); in [18], 0.31 µM (active).
